In US20130149757A1 (OPTINOL, INC., priority 2011, published 2013):

What was measured:
[1] = test system: strains of C. saccharoperbutylacetonium; settings: Keis et al, 2001; cited from earlier work
[2] = Liquid-liquid extraction with corn oil (Karr extractor); format: physicochemical
Method: Two runs were conducted, each with a different flow rate.

[3] = test system: C. saccharoperbutylacetonium N1-504; settings: cited from earlier work
[4] = test system: Novel organism; assay: Carbohydrate utilization screen; format: cell-based, Clostridium beijerinckii sp. optinoii
Text: A full carbohydrate screen was run to test whether the organism is actually N1-504. […] Rather it falls closer to (but is not identical with) C. beijerinckii.

[5] = test system: C. saccharoperbutylacetonium; settings: reported (Keis et al.); cited from earlier work
[6] = test system: bacterial cells; settings: cited from earlier work

Compound	Carbohydrate utilization, strains of C. saccharoperbutylacetonium generally [1]	also measured
O=C[C@@H](O)[C@H](O)[C@H](O)CO [Arabinose]	will utilize	–
O=C[C@H](O)[C@@H](O)[C@H](O[C@@H]1O[C@H](CO)[C@@H](O)[C@H](O)[C@H]1O)[C@H](O)CO [Cellobiose]	will utilize	–
CC(C)O [Isopropanol, isopropanol]	–	% extraction, Run 1 ([2]; flow rate feed 26 ml/min): 23.0%; % extraction, Run 2 ([2]; flow rate feed 39 ml/min): 21.5%; extraction in this set up ([2]; summary comment): about 21%
OC[C@@H](O)[C@@H](O)[C@H](O)[C@@H](O)CO [Sorbitol]	–	Carbohydrate utilization, C. saccharoperbutylacetonium N1-504 [3]: will not utilize
O=C[C@H](O)[C@@H](O)[C@H](O)CO [Xylose]	will utilize	Carbohydrate utilization, Novel organism [4]: does not grow
OC[C@@H](O)[C@H](O)[C@H](O)[C@@H](O)CO [dulcitol]	–	Carbohydrate utilization, C. saccharoperbutylacetonium N1-504 [3]: will not utilize
O[C@H]1[C@H](O)[C@@H](O)[C@H](O)[C@@H](O)[C@H]1O [inositol]	–	Carbohydrate utilization, C. saccharoperbutylacetonium N1-504 [3]: will not utilize
OC[C@H]1O[C@@H](O[C@H]2[C@H](O)[C@@H](O)C(O)O[C@@H]2CO)[C@H](O)[C@@H](O)[C@H]1O (stereo partly drawn) [lactose]	will utilize	–
OC[C@H]1O[C@H](O[C@H]2[C@H](O)[C@@H](O)[C@H](O)O[C@@H]2CO)[C@H](O)[C@@H](O)[C@@H]1O [maltose]	will utilize	–
CO[C@H]1/C=C/O[C@@]2(C)Oc3c(C)c(O)c4c(O)c(c(/C=N/N5CCN(C)CC5)c(O)c4c3C2=O)NC(=O)/C(C)=C\C=C\[C@H](C)[C@H](O)[C@@H](C)[C@@H](O)[C@@H](C)[C@H](OC(C)=O)[C@@H]1C [rifampin]	–	resistance / inhibition of the organism [5]: resistant
OC[C@H]1O[C@@](CO)(O[C@H]2O[C@H](CO)[C@@H](O)[C@H](O)[C@H]2O)[C@@H](O)[C@@H]1O [sucrose]	will utilize	–
dextrin	will utilize	–
glycogen	will utilize	–
inulin	will utilize	–
n-butanol	–	inhibits growth ([6]; […] butanol): ~100%; inhibits cell growth and fermentation ([6]; butanol at a concentration of 1 percent): about 20%
pectin	will utilize	–
starch	will utilize	–
